Data taken from patent publication EP4050002A1, “ANTI-PROLIFERATIVE AGENTS” (First Health Pharmaceuticals B.V., priority 2021, dated 2022).

Tested on: K562 cell line
Assay: Cytotoxicity, MTS method
Type: cell-based
Settings: Homo sapiens, K562, 72 hours of incubation
Protocol: The anti-tumor activity of the compounds of the present invention was evaluated as the effect on the proliferation and survival of tumor cells by counting the number of living cells in presence or absence of the compounds ("cell count method"), and as the effect on the viability and metabolic activity of the cells, by using particular substrates that are converted by cellular enzymes into coloured or luminescent products, proportionally with metabolic activity and state of the cell, such as the MTS tetrazolium compound ("MTS method") or luciferin ("ATP-based method") respectively.
Cells were seeded at 3 to 5 x 10^4 cells/well density depending on cell lines and maintained at 37°C in 5% CO2. After 24 hours cells were treated with ascending concentrations of the investigational compounds and the reference (5-fluoro-Uracyl) in a range from 0 to 100 µM. […] After 72 h of incubation with compounds, the cells were detached with trypsin and re-suspended in 1 ml of complete medium; the cell number was evaluated using a Z2 Coulter Counter ("cell count method") (Attallah and Johnson, A simple highly sensitive methods for the determination of cell viability using an electronic particle analyzer, Coulter counter J. Immunol. Methods. 1981, 41, 155; Leonardi et al., Activated kinase screening identifies the IKBKE oncogene as a positive regulator of autophagy. Autophagy, 2019, 15, 312). […]

SMILES: CCCCc1cn(-c2ccc(-c3nnc(-c4ccccc4C(F)(F)F)o3)cc2)nn1 [Compound 5]
- IC50: 20.3 µM
